Laboratory results published in patent US7906541B2, “Process to prepare new substituted 1H-benzo[d]imidazol-2(3H)-ones, new intermediates and their use as BACE 1 inhibitors” (Universite Paul Cezanne-Aix Marseille III, priority 2008, dated 2011).

SMILES	melting point
CS/C=C(/C)n1c(=O)n(C)c2ccccc21 [Example 1, 1-methyl-3-[(1Z)-1-(methylsulfanyl)prop-1-en-2-yl]-1,3-dihydro-2H-benzimidazol-2-one]	66 °C (dec.)
CS/C=C(/C)n1c(=O)n(Cc2ccccc2)c2ccccc21 [Example 2, 1-benzyl-3-[(1Z)-1-(methylsulfanyl)prop-1-en-2-yl]-1,3-dihydro-2H-benzimidazol-2-one]	227 °C (dec.)
CCn1c(=O)n(/C(C)=C\SC)c2ccccc21 [Example 5, 1-ethyl-3-[(1Z)-1-(methylsulfanyl)prop-1-en-2-yl]-1,3-dihydro-2H-benzimidazol-2-one]	74 °C

Now from value to compound:

melting point	SMILES
148 °C	CS/C=C(/C)n1c(=O)n(Cc2cc(C(F)(F)F)cc(C(F)(F)F)c2)c2ccccc21 [Example 6, 1-[3,5-bis(trifluoromethyl)benzyl]-3-[(1Z)-1-(methylsulfanyl)prop-1-en-2-yl]-1,3-dihydro-2H-benzimidazol-2-one]
194 °C	CS/C=C(/C)n1c(=O)n(C)c2ccc(C(F)(F)F)cc21 [Example 9, 1-methyl-3-[(1Z)-1-(methylsulfanyl)prop-1-en-2-yl]-5-(trifluoromethyl)-1,3-dihydro-2H-benzimidazol-2-one]
110 °C	CS/C=C(/C)n1c(=O)n(C)c2cc(F)ccc21 [Example 10, 5-fluoro-3-methyl-1-[(1Z)-1-(methylsulfanyl)prop-1-en-2-yl]-1,3-dihydro-2H-benzimidazol-2-one]
194 °C	O=c1[nH]c2ccccc2n1Cc1ccccc1 [Example 11, 1-benzyl-1,3-dihydro-2H-benzimidazol-2-one]
